Experiments:
B. subtilis 168 [1] = assay: fitness (endpoint OD595 vs no drug) (fraction); higher = more growth
Summary of the method: (§1)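 Fitness was measured as bacterial growth in 384-well plates inoculated at OD595 0.01 (30 µl, or 55 µl for S. pneumoniae). Media were TSB, LB Lennox or CY, at 37 °C. OD595 was read every 30 min for 14 h and background-subtracted against the first reading. Fitness is OD595 at the transition into stationary phase divided by the robust mean of no-drug control wells, capped at 1.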

S. aureus Newman [2] = assay: as above
Summary of the method: as §1

S. pneumoniae D39V [3] = assay: as above
Summary of the method: as §1

B. subtilis 168 [4] = assay: Bliss interaction score (quartile over a dose matrix) (fitness difference); higher = more antagonism (negative = synergy)
Summary of the method: (§2)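 The Bliss score subtracts expected fitness, the product of the single-drug fitness values, from observed fitness. Fitness is plate-normalised OD595 at entry into stationary phase, relative to the robust no-drug mean and capped at 1, with single-drug fitness inferred from combinations. Summaries are quartiles over technical, biological and donor/recipient replicates.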

S. aureus DSM 20231 = assay: as above
Summary of the method: as §2

S. aureus Newman [5] = assay: as above
Summary of the method: as §2

S. pneumoniae D39V [6] = assay: as above
Summary of the method: as §2

[7] = first compound 0.125 µg/mL, partner 2 µg/mL
[8] = first compound 0.125 µg/mL, partner 4 µg/mL
[9] = first compound 12.5 µg/mL, partner 2 µg/mL, main component drawn
[10] = first compound 25 µg/mL, partner 2 µg/mL, main component drawn
[11] = first compound 50 µg/mL, partner 2 µg/mL, main component drawn
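Wherever Bliss interaction score (quartile over a dose matrix) is given: first quartile when negative (synergy) and third quartile when positive (antagonism).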

CCC[C@@H]1C[C@@H](C(=O)N[C@@H]([C@H]2O[C@H](SC)[C@H](O)[C@@H](O)[C@H]2O)[C@H](C)Cl)N(C)C1 [Clindamycin] + CN[C@@H]1[C@H](O[C@H]2[C@H](O[C@H]3[C@H](O)[C@@H](O)[C@H](N=C(N)N)[C@@H](O)[C@@H]3N=C(N)N)O[C@@H](C)[C@]2(O)C=O)O[C@@H](CO)[C@H](O)[C@H]1O [Streptomycin]
fitness (B. subtilis 168 [1]; first compound 0.0039 µg/mL, partner 2 µg/mL, one replicate): ≥ 1
fitness (B. subtilis 168 [1]; first compound 0.0039 µg/mL, partner 4 µg/mL, one replicate): ≥ 1
fitness (B. subtilis 168 [1]; first compound 0.0039 µg/mL, partner 8 µg/mL, one replicate): 0.994
fitness (B. subtilis 168 [1]; first compound 0.0078 µg/mL, partner 2 µg/mL, one replicate): 0.855
fitness (B. subtilis 168 [1]; first compound 0.0078 µg/mL, partner 4 µg/mL, one replicate): 1
fitness (B. subtilis 168 [1]; first compound 0.0078 µg/mL, partner 8 µg/mL, one replicate): 0.85
fitness (B. subtilis 168 [1]; first compound 0.0156 µg/mL, partner 2 µg/mL, one replicate): 0.895
fitness (B. subtilis 168 [1]; first compound 0.0156 µg/mL, partner 4 µg/mL, one replicate): 0.951
fitness (B. subtilis 168 [1]; first compound 0.0156 µg/mL, partner 8 µg/mL, one replicate): 0.853
fitness (B. subtilis 168 [1]; first compound 0.0625 µg/mL, partner 2 µg/mL): 0.531
fitness (B. subtilis 168 [1]; first compound 0.0625 µg/mL, partner 4 µg/mL): 0.082
fitness (B. subtilis 168 [1]; first compound 0.0625 µg/mL, partner 8 µg/mL): 0.0325
fitness (B. subtilis 168 [1]; [7]): 0.398
fitness (B. subtilis 168 [1]; [8]): 0.0693
fitness (B. subtilis 168 [1]; first compound 0.125 µg/mL, partner 8 µg/mL): 0.0279
fitness (B. subtilis 168 [1]; first compound 0.25 µg/mL, partner 2 µg/mL): 0.105
fitness (B. subtilis 168 [1]; first compound 0.25 µg/mL, partner 4 µg/mL): 0.0596
fitness (B. subtilis 168 [1]; first compound 0.25 µg/mL, partner 8 µg/mL): 0.0359
fitness (S. aureus Newman [2]; first compound 0.0312 µg/mL, partner 1 µg/mL): 0.679
fitness (S. aureus Newman [2]; first compound 0.0312 µg/mL, partner 2 µg/mL): 0.571
fitness (S. aureus Newman [2]; first compound 0.125 µg/mL, partner 1 µg/mL): 0.123
fitness (S. aureus Newman [2]; [7]): 0.0638
fitness (S. aureus Newman [2]; [8]): 0.0582
fitness (S. pneumoniae D39V [3]; first compound 0.0125 µg/mL, partner 2 µg/mL): 0.646
fitness (S. pneumoniae D39V [3]; first compound 0.0125 µg/mL, partner 4 µg/mL): 0.69
fitness (S. pneumoniae D39V [3]; first compound 0.0125 µg/mL, partner 8 µg/mL): 0.733
fitness (S. pneumoniae D39V [3]; first compound 0.015 µg/mL, partner 2 µg/mL, one replicate): 0.889
fitness (S. pneumoniae D39V [3]; first compound 0.015 µg/mL, partner 4 µg/mL): 0.837
fitness (S. pneumoniae D39V [3]; first compound 0.015 µg/mL, partner 8 µg/mL): 0.786
fitness (S. pneumoniae D39V [3]; first compound 0.015 µg/mL, partner 16 µg/mL, one replicate): 0.712
fitness (S. pneumoniae D39V [3]; first compound 0.025 µg/mL, partner 2 µg/mL): 0.445
fitness (S. pneumoniae D39V [3]; first compound 0.025 µg/mL, partner 4 µg/mL): 0.426
fitness (S. pneumoniae D39V [3]; first compound 0.025 µg/mL, partner 8 µg/mL): 0.46
fitness (S. pneumoniae D39V [3]; first compound 0.03 µg/mL, partner 2 µg/mL, one replicate): 0.767
fitness (S. pneumoniae D39V [3]; first compound 0.03 µg/mL, partner 4 µg/mL): 0.71
fitness (S. pneumoniae D39V [3]; first compound 0.03 µg/mL, partner 8 µg/mL): 0.646
fitness (S. pneumoniae D39V [3]; first compound 0.03 µg/mL, partner 16 µg/mL, one replicate): 0.564
fitness (S. pneumoniae D39V [3]; first compound 0.05 µg/mL, partner 2 µg/mL): 0.177
fitness (S. pneumoniae D39V [3]; first compound 0.05 µg/mL, partner 4 µg/mL): 0.21
fitness (S. pneumoniae D39V [3]; first compound 0.05 µg/mL, partner 8 µg/mL): 0.202
fitness (S. pneumoniae D39V [3]; first compound 0.06 µg/mL, partner 2 µg/mL, one replicate): 0.621
fitness (S. pneumoniae D39V [3]; first compound 0.06 µg/mL, partner 4 µg/mL): 0.586
fitness (S. pneumoniae D39V [3]; first compound 0.06 µg/mL, partner 8 µg/mL): 0.544
fitness (S. pneumoniae D39V [3]; first compound 0.06 µg/mL, partner 16 µg/mL, one replicate): 0.424
Bliss interaction score (B. subtilis 168 [4]): -0.101
Bliss interaction score (S. aureus DSM 20231): -0.0299
Bliss interaction score (S. aureus Newman [5]): -0.0908
Bliss interaction score (S. pneumoniae D39V [6]): -0.0581

O=C(O[C@@H]1Cc2c(O)cc(O)cc2O[C@@H]1c1cc(O)c(O)c(O)c1)c1cc(O)c(O)c(O)c1 [EGCG] + C/C(=C\C(=O)OCCCCCCCCC(=O)O)C[C@@H]1OC[C@H](C[C@@H]2O[C@H]2[C@@H](C)[C@H](C)O)[C@@H](O)[C@H]1O [Pseudomonic acid]
fitness (S. aureus Newman [2]; first compound 12.5 µg/mL, partner 0.0313 µg/mL, one replicate): 0.0563
fitness (S. aureus Newman [2]; first compound 12.5 µg/mL, partner 0.0625 µg/mL, one replicate): 0.0491
fitness (S. aureus Newman [2]; first compound 12.5 µg/mL, partner 0.125 µg/mL, one replicate): 0.0477
fitness (S. aureus Newman [2]; first compound 25 µg/mL, partner 0.0313 µg/mL, one replicate): 0.0468
fitness (S. aureus Newman [2]; first compound 25 µg/mL, partner 0.0625 µg/mL, one replicate): 0.0391
fitness (S. aureus Newman [2]; first compound 25 µg/mL, partner 0.125 µg/mL, one replicate): 0.0401
fitness (S. aureus Newman [2]; first compound 50 µg/mL, partner 0.0313 µg/mL, one replicate): 0.0316
fitness (S. aureus Newman [2]; first compound 50 µg/mL, partner 0.0625 µg/mL, one replicate): 0.0458
fitness (S. aureus Newman [2]; first compound 50 µg/mL, partner 0.125 µg/mL, one replicate): 0.0275
fitness (S. pneumoniae D39V [3]; first compound 12.5 µg/mL, partner 0.03 µg/mL): 0.879
fitness (S. pneumoniae D39V [3]; first compound 12.5 µg/mL, partner 0.06 µg/mL): 0.74
fitness (S. pneumoniae D39V [3]; first compound 12.5 µg/mL, partner 0.12 µg/mL): 0.494
fitness (S. pneumoniae D39V [3]; first compound 25 µg/mL, partner 0.03 µg/mL): 0.953
fitness (S. pneumoniae D39V [3]; first compound 25 µg/mL, partner 0.06 µg/mL): 0.824
fitness (S. pneumoniae D39V [3]; first compound 50 µg/mL, partner 0.03 µg/mL): 0.926
fitness (S. pneumoniae D39V [3]; first compound 50 µg/mL, partner 0.12 µg/mL): 0.545
Bliss interaction score (B. subtilis 168 [4]): -0.06
Bliss interaction score (S. aureus DSM 20231): -0.014
Bliss interaction score (S. aureus Newman [5]): 0.0163
Bliss interaction score (S. pneumoniae D39V [6]): -0.0856

O=C(O[C@@H]1Cc2c(O)cc(O)cc2O[C@@H]1c1cc(O)c(O)c(O)c1)c1cc(O)c(O)c(O)c1 [EGCG] + CC(C1CCC(C(O1)OC2C(CC(C(C2O)OC3C(C(C(CO3)(C)O)NC)O)N)N)N)NC [Gentamicin]
fitness (B. subtilis 168 [1]; first compound 6.25 µg/mL, partner 0.0625 µg/mL, main component drawn): 0.944
fitness (B. subtilis 168 [1]; first compound 6.25 µg/mL, partner 0.125 µg/mL, main component drawn): 0.814
fitness (B. subtilis 168 [1]; first compound 25 µg/mL, partner 0.25 µg/mL, main component drawn): 0.142
fitness (S. aureus Newman [2]; first compound 12.5 µg/mL, partner 0.375 µg/mL, one replicate, main component drawn): 0.802
fitness (S. aureus Newman [2]; first compound 12.5 µg/mL, partner 0.5 µg/mL, main component drawn): 0.738
fitness (S. aureus Newman [2]; first compound 12.5 µg/mL, partner 0.75 µg/mL, one replicate, main component drawn): 0.773
fitness (S. aureus Newman [2]; first compound 12.5 µg/mL, partner 1 µg/mL, main component drawn): 0.795
fitness (S. aureus Newman [2]; first compound 12.5 µg/mL, partner 1.5 µg/mL, one replicate, main component drawn): 0.251
fitness (S. aureus Newman [2]; [9]): 0.797
fitness (S. aureus Newman [2]; first compound 25 µg/mL, partner 0.375 µg/mL, one replicate, main component drawn): 0.805
fitness (S. aureus Newman [2]; first compound 25 µg/mL, partner 0.5 µg/mL, main component drawn): 0.69
fitness (S. aureus Newman [2]; first compound 25 µg/mL, partner 0.75 µg/mL, one replicate, main component drawn): 0.762
fitness (S. aureus Newman [2]; first compound 25 µg/mL, partner 1 µg/mL, main component drawn): 0.754
fitness (S. aureus Newman [2]; first compound 25 µg/mL, partner 1.5 µg/mL, one replicate, main component drawn): 0.0762
fitness (S. aureus Newman [2]; [10]): 0.766
fitness (S. aureus Newman [2]; first compound 50 µg/mL, partner 0.375 µg/mL, one replicate, main component drawn): 0.993
fitness (S. aureus Newman [2]; first compound 50 µg/mL, partner 0.5 µg/mL, main component drawn): 0.584
fitness (S. aureus Newman [2]; first compound 50 µg/mL, partner 0.75 µg/mL, one replicate, main component drawn): 0.62
fitness (S. aureus Newman [2]; first compound 50 µg/mL, partner 1 µg/mL, main component drawn): 0.704
fitness (S. aureus Newman [2]; first compound 50 µg/mL, partner 1.5 µg/mL, one replicate, main component drawn): 0
fitness (S. aureus Newman [2]; [11]): 0.709
fitness (S. pneumoniae D39V [3]; [9]): 0.922
fitness (S. pneumoniae D39V [3]; first compound 12.5 µg/mL, partner 4 µg/mL, main component drawn): 0.947
fitness (S. pneumoniae D39V [3]; first compound 12.5 µg/mL, partner 8 µg/mL, main component drawn): 0.936
fitness (S. pneumoniae D39V [3]; [10]): 0.947
fitness (S. pneumoniae D39V [3]; first compound 25 µg/mL, partner 4 µg/mL, main component drawn): ≥ 1
fitness (S. pneumoniae D39V [3]; first compound 25 µg/mL, partner 8 µg/mL, main component drawn): 0.945
fitness (S. pneumoniae D39V [3]; [11]): 0.913
fitness (S. pneumoniae D39V [3]; first compound 50 µg/mL, partner 4 µg/mL, main component drawn): 0.989
fitness (S. pneumoniae D39V [3]; first compound 50 µg/mL, partner 8 µg/mL, main component drawn): 0.942
Bliss interaction score (B. subtilis 168 [4]; main component drawn): 0.329
Bliss interaction score (S. aureus DSM 20231; main component drawn): 0.0682
Bliss interaction score (S. aureus Newman [5]; main component drawn): -0.123
Bliss interaction score (S. pneumoniae D39V [6]; main component drawn): 0.09
